Test results reported in patent US8895753B2, “S1P receptor modulating agent” (Meiji Seika Pharma Co., Ltd., priority 2011, dated 2014).
Where “and” joins values, the source holds several entries; their conditions need not be identical. Equal values may be shown once.

Tests used:
Human S1P1 receptor [1] = molecular target: T1, Human S1P1 receptor (Homo sapiens, UniProt P21453); assay: Agonist activity at an S1P1 receptor (reporter assay, EDG1-bla/U2OS cells); format: cell-based; set-up: host or cells: U2OS (EDG1-bla/U2OS); settings: S1P maximum response = 100%
Protocol: Human S1P1 receptor gene recombinant EDG1-bla/U2OS cells (Life Technologies Japan Ltd.) were plated in a 96-well half-sized clear bottom black plate at a density of 10000 cells/32 μL/well, and then the plate was incubated at 37° C. in a 5% CO2 incubator for 48 hours. A culture medium containing each test compound prepared as a 5× concentrate was added at 8 μL/well, and the plate was incubated at 37° C. in a 5% CO2 incubator for 5 hours. The substrate (LiveBLAzer™-FRET B/G substrate (CCF4-AM), Life Technologies Japan Ltd.) prepared as a 6× concentrate was added at 8 μL into each well, and the plate was incubated at room temperature for 2 hours in the dark. The fluorescence intensity of each well was detected using a bottom-reading fluorescence microplate reader (EnVision: ParkinElmer) at one excitation wavelength and 2 wavelengths for fluorescence emission (Ex409 nm, Em460 nm, Em530 nm). The intensity ratio of fluorescence at 460 nm/530 nm was calculated for each well. The maximum response ratio confirmed from the dose response of SIP was expressed as 100%. The concentration of a test compound required to stimulate 50% of its maximal activation was computed as EC50 (nM).

Human S1P4 receptor = molecular target: T2, Human S1P4 receptor (Homo sapiens, UniProt O95977); assay: Agonist activity at a S1P4 receptor (reporter assay, EDG6-bla/U2OS cells); format: cell-based
T2 sequence (O95977 1-384): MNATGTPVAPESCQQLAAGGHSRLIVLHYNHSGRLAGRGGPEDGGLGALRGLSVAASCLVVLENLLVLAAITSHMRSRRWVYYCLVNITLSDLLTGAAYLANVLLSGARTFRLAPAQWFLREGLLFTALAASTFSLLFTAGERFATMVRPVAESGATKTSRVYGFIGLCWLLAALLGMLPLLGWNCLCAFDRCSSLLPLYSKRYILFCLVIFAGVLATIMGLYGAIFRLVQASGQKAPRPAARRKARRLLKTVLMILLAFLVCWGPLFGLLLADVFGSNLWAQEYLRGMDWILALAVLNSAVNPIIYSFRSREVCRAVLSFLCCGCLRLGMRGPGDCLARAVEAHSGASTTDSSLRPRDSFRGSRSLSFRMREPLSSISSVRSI
Protocol: Human S1P4 receptor gene recombinant EDG6-bla/U2OS cells (Life Technologies Japan Ltd.) were seeded into each well of a 384-well clear bottom black plate treated with poly-D-lysine at a density of 10000 cells/32 μL/well and cultured at 37° C. in a 5% CO2 incubator for 16 to 24 hours. A culture medium containing each test compound prepared as a 5× concentrate was added at 8 μL/well, and the plate was cultured at 37° C. in a 5% CO2 incubator for 5 hours. The substrate (LiveBLAzer™-FRET B/G substrate (CCF4-AM), Life Technologies Japan Ltd.) prepared as a 6× concentrate was added at 8 μL to each well, and the plate was incubated for 2 hours in the dark. The fluorescence intensity of the test samples was measured using bottom-reading fluorescence microplate reader at one excitation wavelength and 2 wavelengths for fluorescence emission (Ex409 nm, Em460 nm, Em530 nm). The intensity ratio of fluorescence at 460 nm/530 nm was calculated for each well. The maximum response ratio confirmed from the dose response of S1P was expressed as 100%. The concentration of the test compound required to stimulate 50% of its maximal activation was computed as EC50 (nM).

[2] = test system: experimental autoimmune encephalomyelitis; assay: Experimental autoimmune encephalomyelitis model; format: in vivo; settings: SJL/J mouse, orally once daily at 1 mg/kg body weight or more
Protocol: An emulsion of PLP139-151/CFA was subcutaneously administered to the upper dorsal region and in the tail of an 8-week-old female SJL/J mouse at a dose of 100 μL/body. At 2 hours and 24 hours after the administration, pertussis toxin was peritoneally administered at a dose of 100 μL/body. Thus, the mouse prepared in this procedure was used as an experimental autoimmune encephalomyelitis model. […] The compound suspended in a solution of 0.5% hydroxypropyl methylcellulose was orally administered by force once daily. The changes in pathological score and body weight were recorded and the results compared to the vehicle-treated group, from which the efficacy of the compounds was evaluated.

[3] = test system: collagen-induced arthritis; assay: Collagen-induced arthritis model; format: in vivo; settings: DBA/1JN mouse, oral once daily for 4 weeks
Protocol: A solution of Type II collagen derived from bovine and Freund's complete adjuvant were mixed to prepare an emulsion. This emulsion was used to elicit collagen-induced arthritis in a 7-week-old female DBA/1JN mouse. The initial sensitization was carried out by subcutaneous administration of the emulsion in the tail of the mouse at a dose of 150 μg/100 μL/body. 21 days after the initial sensitization, a freshly prepared collagen emulsion solution was administered subcutaneously in the tail of the mouse at a dose of 100 μg/100 μL/body as a secondary sensitization. The mouse prepared in this procedure was used as the collagen-induced arthritis model. A compound suspended in 0.5% hydroxymethyl cellulose solution was orally administered by force once daily for 4 weeks following the additional second sensitization. Pathological scores including joint symptoms and the like were measured, and the results compared to the vehicle-treated group, from which the efficacy of the compound was evaluated.

[4] = test system: electrocardiogram / monophasic action potential (MAP); assay: Evaluation of cardiovascular system in a guinea pig; format: in vivo; settings: anesthetized guinea pig, 0.1 mg/kg body weight, infusion
Source text: Under anesthesia with 0.5 to 1% of halothane, to a male Hartley guinea-pig (Japan SLC, Inc.) that had been reared for more than one week, a catheter for administration of a drug solution was placed into the left jugular vein, a monophasic action potential (MAP) measurement/pacing catheter was placed into the endothelial lining of the right ventricle, a catheter for measuring blood pressure was placed into the left carotid artery, and the measurement of body surface electrocardiogram (lead II) was conducted. The drug solution was infused for 10 minutes and the measurement was carried out over 60 minutes. Also, 5, 10, 15, 20, 30, 45 and 60 minutes after the administration of the drug solution, pacing was performed (200, 240, 300 bpm), and monophasic action potential (MAP) was measured.

Human S1P1 receptor [5] = molecular target: T1, Human S1P1 receptor; assay: Agonist activity at an S1P1 receptor ([35S]-GTPγS exchange reaction, membrane fractions); format: biochemical; settings: read-out: EC50, agonist activity at S1P1 receptor (GTP exchange reaction)
Protocol: By using membrane fractions prepared from a human S1P1 receptor expressing cells (Multispan Ltd.), the agonist activity of each test compound was measured by [^35S]-GTPγS exchange reaction in accordance with a standard procedure (Methods in Molecular Biology, Vol. 552, p 143-151 (2009)), and EC50 (nM) of each test compound was computed.

T1 sequence (P21453 whole entry): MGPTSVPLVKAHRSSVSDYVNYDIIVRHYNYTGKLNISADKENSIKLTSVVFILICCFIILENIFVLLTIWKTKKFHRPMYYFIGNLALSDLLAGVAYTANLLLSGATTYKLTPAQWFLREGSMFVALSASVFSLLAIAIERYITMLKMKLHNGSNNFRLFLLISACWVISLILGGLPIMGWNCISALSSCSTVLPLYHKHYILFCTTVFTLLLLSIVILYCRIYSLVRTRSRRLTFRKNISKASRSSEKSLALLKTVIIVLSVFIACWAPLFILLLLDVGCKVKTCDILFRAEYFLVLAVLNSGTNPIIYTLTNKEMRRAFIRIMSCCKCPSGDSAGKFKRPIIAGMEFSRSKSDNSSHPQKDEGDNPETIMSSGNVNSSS

Structure (SMILES)	EC50 (Human S1P1 receptor [1])	EC50 (Human S1P4 receptor) [nM]	inhibition of pathological scores [2]	efficacy on pathological scores (joint symptoms) [3]	MAP90 prolongation effect [4]	prolonged QT [4]	EC50 (Human S1P1 receptor [5]) [nM]
CC(C)Oc1ccc(-c2cnc(-c3ccc(CN4CC(C(=O)O)C4)cc3)s2)cc1 [Example 2, 1-(4-(5-(4-isopropoxyphenyl)thiazol-2-yl)benzyl)azetidine-3-carboxylic acid]	≤ 10 nM and 3.79 nM	≥ 2000	significantly inhibit	equally effective as Fingolimod	not observed	not observed	≤ 50
CC(C)Oc1ccc(-c2cnc(-c3ccc(CN4CC(C(=O)O)C4)cc3)s2)cc1Cl [Example 3, 1-(4-(5-(3-chloro-4-isopropoxyphenyl)thiazol-2-yl)benzyl)azetidine-3-carboxylic acid]	≤ 1 nM and 0.41 nM	≥ 2000	–	–	–	–	≤ 10
